Key:
KB = assay: Concentration that inhibits cell proliferation (KB cell line) after 72 h of incubation; type: functional, cell-based; conditions: Homo sapiens
[1] = Concentration that inhibits the rate of cold-induced microtubule disassembly; type: functional
[2] = Concentration that inhibits the rate of cold-induced microtubule disassembly; Inactive; type: functional

Structure (SMILES)	IC50 (KB) [nM]	IC50 [1] [nM]	IC50 [2]
CC(=O)O[C@@]12COC1C[C@H](O)C1C(=O)[C@H](O)C3=C(C)[C@@H](OC(=O)[C@H](O)[C@@H](NC(=O)OC(C)(C)C)c4ccccc4)C[C@@](O)([C@@H](OC(=O)c4ccccc4)C12)C3(C)C (some centres undefined)	1	500	–
CC(=O)O[C@@]12COC1C[C@H](O)C1C(=O)[C@H](O)C3=C(C)[C@@H](OC(=O)[C@H](O)[C@@H](NC(=O)N[C@H](C(=O)N4CCC[C@H]4C(=O)NCC(=O)O)C(C)C)c4ccccc4)C[C@@](O)([C@@H](OC(=O)c4ccccc4)C12)C3(C)C (some centres undefined)	> 10000	600	–
CC(=O)O[C@@]12COC1C[C@H](O)C1C(=O)[C@H](O)C3=C(C)[C@@H](OC(=O)[C@H](O)[C@@H](NC(=O)N[C@H](C(=O)N4CCC[C@H]4C(=O)NCC(=O)NCC(=O)OCc4ccccc4)C(C)C)c4ccccc4)C[C@@](O)([C@@H](OC(=O)c4ccccc4)C12)C3(C)C (some centres undefined)	4000	300	–
CC(=O)O[C@@]12COC1C[C@H](O)C1C(=O)[C@H](O)C3=C(C)[C@@H](OC(=O)[C@H](O)[C@@H](NC(=O)N[C@H](C(=O)O)C(C)C)c4ccccc4)C[C@@](O)([C@@H](OC(=O)c4ccccc4)C12)C3(C)C (some centres undefined)	670	800	–
CC(=O)O[C@@]12COC1C[C@H](O)C1C(=O)[C@H](O)C3=C(C)[C@@H](OC(=O)[C@H](O)[C@@H](NC(=O)NCC(=O)N[C@@H](COCc4ccccc4)C(=O)N[C@@H](Cc4ccc(OCc5ccccc5)cc4)C(=O)OCc4ccccc4)c4ccccc4)C[C@@](O)([C@@H](OC(=O)c4ccccc4)C12)C3(C)C (some centres undefined)	90	–	Not Active
CC(=O)O[C@@]12COC1C[C@H](O)C1C(=O)[C@H](O)C3=C(C)[C@@H](OC(=O)[C@H](O)[C@@H](NC(=O)N[C@H](C(=O)N4CCC[C@H]4C(=O)NCC(=O)NCC(=O)O)C(C)C)c4ccccc4)C[C@@](O)([C@@H](OC(=O)c4ccccc4)C12)C3(C)C (some centres undefined)	> 10000	500	–
CC(=O)O[C@@]12COC1C[C@H](O)C1C(=O)[C@H](O)C3=C(C)[C@@H](OC(=O)[C@H](O)[C@@H](NC(=O)N[C@H](C(=O)N4CCC[C@H]4C(=O)O)C(C)C)c4ccccc4)C[C@@](O)([C@@H](OC(=O)c4ccccc4)C12)C3(C)C (some centres undefined)	4500	1700	–

The remaining molecules from weak to strong by IC50 (KB), led by results:

IC50 (KB) [nM]	IC50 [1] [nM]	IC50 [2]	Structure (SMILES)
1100	2600	–	COC(=O)[C@H](CCSC)NC(=O)[C@H](Cc1ccccc1)NC(=O)[C@@H](NC(=O)N[C@@H](c1ccccc1)[C@@H](O)C(=O)O[C@H]1C[C@@]2(O)[C@@H](OC(=O)c3ccccc3)C3C(C(=O)[C@H](O)C(=C1C)C2(C)C)[C@@H](O)CC1OC[C@]13OC(C)=O)C(C)C (some centres undefined)
1050	1000	–	CC(=O)O[C@@]12COC1C[C@H](O)C1C(=O)[C@H](O)C3=C(C)[C@@H](OC(=O)[C@H](O)[C@@H](NC(=O)NCC(=O)N[C@@H](CO)C(=O)N[C@@H](Cc4ccc(O)cc4)C(=O)O)c4ccccc4)C[C@@](O)([C@@H](OC(=O)c4ccccc4)C12)C3(C)C (some centres undefined)
100	400	–	CC(=O)O[C@@]12COC1C[C@H](O)C1C(=O)[C@H](O)C3=C(C)[C@@H](OC(=O)[C@H](O)[C@@H](NC(=O)N[C@H](C(=O)N4CCC[C@H]4C(=O)NCC(=O)OCc4ccccc4)C(C)C)c4ccccc4)C[C@@](O)([C@@H](OC(=O)c4ccccc4)C12)C3(C)C (some centres undefined)
50	500	–	CC(=O)O[C@@]12COC1C[C@H](O)C1C(=O)[C@H](O)C3=C(C)[C@@H](OC(=O)[C@H](O)[C@@H](NC(=O)N[C@H](C(=O)N4CCC[C@H]4C(=O)OCc4ccccc4)C(C)C)c4ccccc4)C[C@@](O)([C@@H](OC(=O)c4ccccc4)C12)C3(C)C (some centres undefined)
4	800	–	CC(=O)O[C@@]12COC1C[C@H](O)C1C(=O)[C@H](O)C3=C(C)[C@@H](OC(=O)[C@H](O)[C@@H](NC(=O)N[C@H](C(=O)OCc4ccccc4)C(C)C)c4ccccc4)C[C@@](O)([C@@H](OC(=O)c4ccccc4)C12)C3(C)C (some centres undefined)

— ChEMBL document CHEMBL1140396, “Novel C2-C3' N-peptide linked macrocyclic taxoids. Part 1: Synthesis and biological activities of docetaxel analogues with a peptide side chain at C3'” (Bioorg Med Chem Lett, 2005)
